Measurements as given in patent publication US7767659B2, “Synthesis of naturally occurring ecteinascidins and related compounds” (Pharma Mar, S.A., priority 2002, dated 2010).
Like-named read-outs stand apart in the source and are kept apart here.

Columns and labels:
[1] = tested on: LNCaP; experiment: Inhibition of cells growth by colorimetric assay (SRB); conditions: for GI50: read-out: GI50 LNCAP; for CC50: read-out: LC50 LNCAP
Summary of the method: (§1)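 Colorimetric SRB read (490 nm) on triplicate wells after 48 h at 37 °C, 5% CO2. Dose range 10 to 10^−8 μg/ml; 5×10^3 cells/well pre-attached 18 h.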

[2] = tested on: DU-145; experiment: as above; conditions: for GI50: read-out: GI50 DU145; for CC50: read-out: LC50 DU145
Summary of the method: as §1

[3] = tested on: SK-MEL-28; experiment: as above; conditions: for GI50: read-out: GI50 MEL-28; for CC50: read-out: LC50 MEL-28
Summary of the method: as §1

[4] = tested on: SK-BR-3; experiment: as above; conditions: for GI50: read-out: GI50 SK-BR3; for CC50: read-out: LC50 SK-BR3
Summary of the method: as §1

[5] = tested on: HeLa; experiment: as above; conditions: for GI50: read-out: GI50 HELA; for CC50: read-out: LC50 HELA
Summary of the method: as §1

[6] = tested on: IGROV-ET; experiment: as above; conditions: for GI50: read-out: GI50 IGROV-ET; for CC50: read-out: LC50 IGROV-ET
Summary of the method: as §1

[7] = tested on: PANC-1; experiment: as above; conditions: for GI50: read-out: GI50 PANC-1; for CC50: read-out: LC50 PANC-1
Summary of the method: as §1

[8] = tested on: IGROV-1; experiment: as above; conditions: for GI50: read-out: GI50 IGROV; for CC50: read-out: LC50 IGROV
Summary of the method: as §1

[9] = tested on: K-562; experiment: as above; conditions: for GI50: read-out: GI50 K562; for CC50: read-out: LC50 K562
Summary of the method: as §1

[10] = tested on: LoVo-Dox; experiment: as above; conditions: for GI50: read-out: GI50 LOVO-DOX; for CC50: read-out: LC50 LOVO-DOX
Summary of the method: as §1

[11] = tested on: HeLa-APL; experiment: as above; conditions: for GI50: read-out: GI50 HELA-APL; for CC50: read-out: LC50 HELA-APL
Summary of the method: as §1

[12] = tested on: LoVo; experiment: cells; conditions: for GI50: read-out: GI50 LOVO; for CC50: read-out: LC50 LOVO
Summary of the method: as §1

[13] = tested on: HT-29; experiment: cells; conditions: for GI50: read-out: GI50 HT29; for CC50: read-out: LC50 HT29
Summary of the method: as §1

[14] = tested on: A-549; experiment: cells; conditions: for GI50: read-out: GI50 A549; for CC50: read-out: LC50 A549
Summary of the method: as §1

[15] = IGROV-ET, SRB, 48 hours exposure
[16] = LOVO-DOX, SRB, 48 hours exposure
[17] = HELA-APL, SRB, 48 hours exposure

SMILES: C=CCN1C2Cc3cc(C)c(OC)c(O)c3C1C1C3SCC(NC(C)=O)C(=O)OCC(c4c5c(c(C)c(OC(C)=O)c43)OCO5)N1C2C#N (stereo not drawn) [compound 24]
- TGI LNCAP ([1]; LNCAP, SRB, 48 hours exposure): 2.53E−08 Molar
- GI50 ([1]; LNCAP, SRB, 48 hours exposure): 8.4 nM
- CC50 ([1]; LNCAP, SRB, 48 hours exposure): 64.4 nM
- TGI DU145 ([2]; DU145, SRB, 48 hours exposure): 5.23E−08 Molar
- GI50 ([2]; DU145, SRB, 48 hours exposure): 27.8 nM
- CC50 ([2]; DU145, SRB, 48 hours exposure): 125 nM
- TGI MEL-28 ([3]; MEL-28, SRB, 48 hours exposure): 4.27E−08 Molar
- GI50 ([3]; MEL-28, SRB, 48 hours exposure): 20.1 nM
- CC50 ([3]; MEL-28, SRB, 48 hours exposure): 90.9 nM
- TGI SK-BR3 ([4]; SK-BR3, SRB, 48 hours exposure): 6.38E−08 Molar
- GI50 ([4]; SK-BR3, SRB, 48 hours exposure): 24.8 nM
- CC50 ([4]; SK-BR3, SRB, 48 hours exposure): 269 nM
- TGI HELA ([5]; HELA, SRB, 48 hours exposure): 4.76E−08 Molar
- GI50 ([5]; HELA, SRB, 48 hours exposure): 20.3 nM
- CC50 ([5]; HELA, SRB, 48 hours exposure): 112 nM
- TGI IGROV-ET [6, 15]: 6.20E−08 Molar
- GI50 [6, 15]: 29.5 nM
- CC50 [6, 15]: 130 nM
- TGI PANC-1 ([7]; PANC-1, SRB, 48 hours exposure): 9.19E−08 Molar
- GI50 ([7]; PANC-1, SRB, 48 hours exposure): 30.1 nM
- CC50 ([7]; PANC-1, SRB, 48 hours exposure): 14500 nM
- TGI IGROV ([8]; IGROV, SRB, 48 hours exposure): 3.18E−08 Molar
- GI50 ([8]; IGROV, SRB, 48 hours exposure): 8.21 nM
- CC50 ([8]; IGROV, SRB, 48 hours exposure): 110 nM
- TGI K562 ([9]; K562, SRB, 48 hours exposure): 1.71E−08 Molar
- GI50 ([9]; K562, SRB, 48 hours exposure): 4.07 nM
- CC50 ([9]; K562, SRB, 48 hours exposure): 93.8 nM
- TGI LOVO-DOX [10, 16]: 1.74E−06 Molar
- GI50 [10, 16]: 115 nM
- CC50 [10, 16]: 14500 nM
- TGI HELA-APL [11, 17]: 4.65E−08 Molar
- GI50 [11, 17]: 20.3 nM
- CC50 [11, 17]: 107 nM
- TGI LOVO ([12]; LOVO, SRB, 48 hours exposure): 8.21E−08 Molar
- GI50 ([12]; LOVO, SRB, 48 hours exposure): 26.1 nM
- CC50 ([12]; LOVO, SRB, 48 hours exposure): 14500 nM
- TGI HT29 ([13]; HT29, SRB, 48 hours exposure): 1.39E−08 Molar
- GI50 ([13]; HT29, SRB, 48 hours exposure): 5.17 nM
- CC50 ([13]; HT29, SRB, 48 hours exposure): 14500 nM
- TGI A549 ([14]; A549, SRB, 48 hours exposure): 4.62E−08 Molar
- GI50 ([14]; A549, SRB, 48 hours exposure): 21.9 nM
- CC50 ([14]; A549, SRB, 48 hours exposure): 97.4 nM

SMILES: C=CCN1[C@@H]2c3c(cc(C)c(OC)c3O)C[C@H]1[C@H](C#N)N1C2[C@@H]2SCC(NC(=O)C(F)(F)F)C(=O)OC[C@H]1c1c3c(c(C)c(OC(C)=O)c12)OCO3 (stereo partly drawn) [compound 25]
- GI50 ([1]; Homo sapiens, LNCaP, 48 h): 323 nM
- CC50 ([1]; Homo sapiens, LNCaP, 48 h): 2550 nM
- IC (TGI) ([1]; Homo sapiens, LNCaP, 48 h, read-out: TGI LNCAP): 757 nM
- GI50 ([2]; Homo sapiens, DU-145, 48 h): 861 nM
- CC50 ([2]; Homo sapiens, DU-145, 48 h): 6570 nM
- IC (TGI) ([2]; Homo sapiens, DU-145, 48 h, read-out: TGI DU145): 2200 nM
- GI50 ([3]; Homo sapiens, SK-MEL-28, 48 h): 632 nM
- CC50 ([3]; Homo sapiens, SK-MEL-28, 48 h): 5650 nM
- IC (TGI) ([3]; Homo sapiens, SK-MEL-28, 48 h, read-out: TGI MEL-28): 1770 nM
- GI50 ([4]; Homo sapiens, SK-BR-3, 48 h): 555 nM
- CC50 ([4]; Homo sapiens, SK-BR-3, 48 h): 8640 nM
- IC (TGI) ([4]; Homo sapiens, SK-BR-3, 48 h, read-out: TGI SK-BR3): 1060 nM
- GI50 ([5]; Homo sapiens, HeLa, 48 h): 1500 nM
- CC50 ([5]; Homo sapiens, HeLa, 48 h): 8110 nM
- IC (TGI) ([5]; Homo sapiens, HeLa, 48 h, read-out: TGI HELA): 3480 nM
- GI50 ([6]; Homo sapiens, 48 h): 1610 nM
- CC50 ([6]; Homo sapiens, 48 h): 12100 nM
- IC (TGI) ([6]; Homo sapiens, 48 h, read-out: TGI IGROV-ET): 4410 nM
- GI50 ([7]; Homo sapiens, PANC-1, 48 h): 1370 nM
- CC50 ([7]; Homo sapiens, PANC-1, 48 h): 11000 nM
- IC (TGI) ([7]; Homo sapiens, PANC-1, 48 h, read-out: TGI PANC-1): 3900 nM
- GI50 ([8]; Homo sapiens, IGROV-1, 48 h): 660 nM
- CC50 ([8]; Homo sapiens, IGROV-1, 48 h): 8010 nM
- IC (TGI) ([8]; Homo sapiens, IGROV-1, 48 h, read-out: TGI IGROV): 1430 nM
- GI50 ([9]; Homo sapiens, K562, 48 h): 316 nM
- CC50 ([9]; Homo sapiens, K562, 48 h): 3780 nM
- IC (TGI) ([9]; Homo sapiens, K562, 48 h, read-out: TGI K562): 775 nM
- GI50 ([10]; Homo sapiens, 48 h): 904 nM
- CC50 ([10]; Homo sapiens, 48 h): 13900 nM
- IC (TGI) ([10]; Homo sapiens, 48 h, read-out: TGI LOVO-DOX): 3770 nM
- GI50 ([11]; Homo sapiens, 48 h): 939 nM
- CC50 ([11]; Homo sapiens, 48 h): 7690 nM
- IC (TGI) ([11]; Homo sapiens, 48 h, read-out: TGI HELA-APL): 2780 nM
- GI50 ([12]; Homo sapiens, LoVo, 48 h): 938 nM
- CC50 ([12]; Homo sapiens, LoVo, 48 h): 9270 nM
- IC (TGI) ([12]; Homo sapiens, LoVo, 48 h, read-out: TGI LOVO): 3160 nM
- GI50 ([13]; Homo sapiens, HT-29, 48 h): 1640 nM
- CC50 ([13]; Homo sapiens, HT-29, 48 h): 13900 nM
- IC (TGI) ([13]; Homo sapiens, HT-29, 48 h, read-out: TGI HT29): 8570 nM
- GI50 ([14]; Homo sapiens, A549, 48 h): 927 nM
- CC50 ([14]; Homo sapiens, A549, 48 h): 11500 nM
- IC (TGI) ([14]; Homo sapiens, A549, 48 h, read-out: TGI A549): 3450 nM
